Results on one compound are retold here after patent publication US11576903B2, “Amorphous kinase inhibitor formulations and methods of use thereof” (Deciphera Pharmaceuticals, LLC, priority 2019, dated 2023).

SMILES strings stand for the structures. Values after ≈ are worked out from the molar mass of the structure shown.

A short description of data set [1]: Kinetic aqueous solubility at select pH. In kind it is physicochemical. The following applies: aqueous medium, kinetic from dmso stock, 25° C. Here is the method:
Solubility of a solid dispersion of amorphous Compound 1 (25%)/HPMCAS-HG as prepared in Example 1, at select pH values was evaluated.

The nature of data set [2]: Pharmacokinetic study after oral administration to rats. To be noted: rat, in vivo, 10 mg/kg (Compound 1 basis), oral suspension. As for the experimental part:
Studies comparing the pharmacokinetics of crystalline Compound 1 and solid dispersion of amorphous Compound 1 (25%) as prepared in Example 1 were conducted in rats. The dose in both studies were 10 mg/kg (Compound 1 basis). Rats were administered Crystalline Compound 1 as an oral suspension in a vehicle of 20% Captisol/0.4% HPMC at pH 2. Rats were administered amorphous Compound 1 as an oral suspension using in a 0.5% Methocel vehicle.

The kinetic solubility is solubility judged after dilution from a stock solution rather than from solid. By AUC(0-inf) is commonly meant total exposure, with the tail of the curve extrapolated. A high value points to more exposure. A word on the AUC(0-t): it is the area under the concentration-time curve up to a stated or last time point. What is called Cmax is the highest concentration seen after dosing. The Tmax is the time at which the peak concentration occurs. Broadly, the half-life is how long it takes for the measured level to halve. Low readings indicate fast loss, high ones slow loss. As for `CCn1c(=O)c(-c2cc(NC(=O)Nc3ccccc3)c(F)cc2Br)cc2cnc(NC)cc21` [Crystalline Compound 1], in data set [1] (aqueous buffer, pH 6.5, aqueous), the solubility (kinetic) worked out at 1 µg/mL (≈ 1.96 µM). The compound also gave a kinetic solubility in data set [1] (simulated gastric fluid, pH 2, aqueous) of 6 µg/mL (≈ 11.8 µM). Besides, in data set [2], the AUC(0-inf) is 131 ng·h/mL, the AUC(0-t) was 111 ng·h/mL, the Cmax was 20.2 ng/mL and the Tmax was determined as 1.67 h. This compound also had a half-life in data set [2] of 8.76 h.
